Experimental data as given in patent US20130131111A1, “NMN MODULATORS FOR THE TREATMENT OF NEURODEGENERATIVE DISORDERS” (Babraham Institute, priority 2010, published 2013).

What was measured:
Assay type in all cases: cell-based, mouse
[1] = system: intracellular NAD(P)^+ levels in SCG cultures; experiment: NAD(P)+ levels in SCG explant cultures; conditions: 100 nM FK866 for 8 h or 24 h; FIG. 2
Description: (§1) Explants were placed into L15 (Leibovitz) medium (Invitrogen), cleaned from other tissues, cut in half and six half explants were placed in the centre of 3.5 cm tissue culture dishes pre-coated with poly-L-lysine (20 μg/ml for 2 h; Sigma) and laminin (20 μg/ml for 2 h; Sigma). Explants were cultured in DMEM containing 4500 mg/L glucose and 110 mg/L sodium pyruvate (Sigma), 2 mM glutamine, 1% penicillin/streptomycin, 1/50 B27 serum supplement and 100 ng/ml 7S NGF (all from Invitrogen) and 4 μM aphidicolin (Sigma) to block proliferation of non-neuronal cells. Neurites were allowed to extend for 7 days in all cultures before any treatment. After this time, neurites were separated from their cell bodies using a scalpel. […] Bright-field images were captured on an Olympus IX81 inverted microscope using a Soft Imaging Systems F-View camera linked to a PC running the Analysis software. Images of the same field of neurites were captured just after or at regular intervals up to 48-72 hours after cut injuries.
At this time, the explants were collected in 100 μl H2O for NAD(P)^+ determination as described in Billington et al. (2008) J Biol Chem 283(10), 6367-6374.
The results of this analysis can be seen in FIG. 2. […] Therefore, the reduced intracellular levels of NMN^+ result in a reduction in the turnover of NMN^+ to NAD^+ by isoforms of Nmnat.

neurites of SCG neurons = experiment: Vincristine-treated neurites of SCG explant cultures
Description: as §1
This experiment was performed in an analogous manner to that described in Examples 2 and 3, however the neurites, instead of being separated by the cell body with a cut, were treated with the neurotoxic chemotherapy drug vincristine. […] The distal part of the neurites was imaged immediately and at 24, 48 and 72 hours after adding the drugs.

[2] = system: cut neurites of SCG neurons; experiment: Cut neurites of SCG explant cultures (Wallerian degeneration)
Description: as §1, with “injuries. […] In this experiment, SCG neurons were cultured for 7 days as described in the methodology, then the neurites were separated from the cell bodies by a scalpel, and the distal part of the neurites with respect to the cut was imaged immediately after the cut or 24 hours after the cut.” for “injuries.”

O=C(/C=C/c1cccnc1)NCCCCC1CCN(C(=O)c2ccccc2)CC1 [FK866, N-[4-(1-benzoyl-4-piperidinyl)butyl]-3-(3-pyridinyl)-2E-propenamide]
effect on NAD^+ levels [1]: depletion of NAD^+ | effect on vincristine-induced neurite degeneration (neurites of SCG neurons; 0.02 μM vincristine plus 100 nM FK866, up to 72 hours, FIG. 5): protection | neurite survival increase ([2]; FK866 100 nM, cut neurites, estimated): increased by four fold | effect on injured (cut) neurites ([2]; FK866 100 nM, imaged 24 hours after cut, FIG. 3): preserving injured neurites in primary culture even if added shortly after cutting | neuroprotective effect on cell bodies ([2]; data not shown): does not extend to cell bodies

NC(=O)c1ccc[n+]([C@@H]2O[C@H](COP(=O)([O-])O)[C@@H](O)[C@H]2O)c1 [NMN, nicotinamide mononucleotide]
effect of adding NMN with FK866 on vincristine-treated neurites (neurites of SCG neurons; 0.02 μM vincristine plus 100 nM FK866 and 1 mM NMN, FIG. 5): protective effect is reverted | effect of adding NMN^+ with FK866 on cut neurites ([2]; NMN^+ in combination with FK866, FIG. 4): reverts the protective effect of FK866

CC[C@]1(O)C[C@H]2CN(CCc3c([nH]c4ccccc34)[C@@](C(=O)OC)(c3cc4c(cc3OC)N(C=O)[C@H]3[C@@](O)(C(=O)OC)[C@H](OC(C)=O)[C@]5(CC)C=CCN6CC[C@]43[C@@H]65)C2)C1 [Vincristine, vincristine]
toxic effect on neurites (neurites of SCG neurons; 0.02 μM vincristine alone): progressive distal-to-proximal degeneration of neurites
